According to patent publication US20240067733A1, “COMPOSITIONS AND METHODS FOR TARGETING AND KILLING ALPHA-V BETA-3-POSITIVE CANCER STEM CELLS (CSCS) AND TREATING DRUG RESISTANT CANCERS” (THE REGENTS OF THE UNIVERSITY OF CALIFORNIA, priority 2017, published 2024):

How the values were obtained:
[1] = system: HCC827 (β3−, GFP+, luciferase+) cells; test: Orthotopic lung adenocarcinoma model and CTC isolation; format: in vivo, nu/nu mice
Method: The pre-treatment group mice were sacrificed in week 8 for CTC analysis. […] Whole blood (0.5 mL/mouse) was collected in EDTA tubes, and PBMCs including CTCs were isolated using Lymphoprep™ ([…] Technologies, 85415) and SepMate™ ([…] Technologies, 07801) following the manufacturer's protocol. Isolated cells were washed with PBS, plated on poly-L-Lysine (Sigma, P1399) coated 8-well chamber plates, fixed with 4% PFA (VWR, AA43368-9M), and stained with DAPI (Life Technologies, D1306, 1 μg/mL in 1% BSA in PBS), LM609 (5 μg/mL in 1% BSA in PBS), and a fluorescently-labeled secondary antibody (Thermo, A21235, 1:500). The cells were analyzed utilizing Nikon Eclipse C2™ confocal microscope (Nikon). CTCs were defined as DAPI and GFP double positive cells. The numbers of αvβ3-positive and -negative CTCs per mouse were counted. After sacrificing the mice, the tumor mass volume in the lungs were also measured utilizing an OV100™ fluorescence imaging system (Olympus).

[2] = system: PC9 (β3−) subcutaneous xenograft; test: PC9 subcutaneous xenograft treated with erlotinib; format: in vivo, mice; conditions: erlotinib n=1 vs vehicle n=1, measured weekly
[3] = system: tumor-associated macrophages (TAMs); test: Quantification of TAMs in xenograft tumor tissues; format: in vivo, nu/nu mice; conditions: erlotinib vs vehicle, after 50 days of treatment
Method: TAMs were isolated from tumor tissues as previously described (4). Snap frozen tumor tissues were thawed, minced, and dissociated in HBSS containing collagenase IV (Sigma, C5138, 0.5 mg/mL), hyaluronidase (Sigma, H2654, 0.1 mg/mL), dispase 11 (Roche, 04942078001, 0.6 U/mL), and DNase IV (Millipore, 260913-10MU, 5 U/mL) at 37° C. for 15 minutes. Cell suspensions were filtered through 70 μm cell strainer and washed with PBS. Single cell suspensions (10^6 cells/100 μL in 5% BSA in PBS) were incubated with Mouse BD Fc Block™ (BD Biosciences, 553142, 1:50) for 10 minutes at 4° C. and fluorescently labeled antibodies, CD11b (eBioscience, 17-0112-81, 1:100), Ly-6G (eBioscience, 25-5931, 1:100), CD206 (BioRad, MCA2235PET), and MHC11 (BD Biosciences, 562928) for one hour at 4° C. Flow cytometry was performed on BD LSRFortessa™, and the ratio of TAMs (CD11b-positive, Ly-6G-negative), M1 (CD206-negative, MHC11-positive within TAMs), and M2 (non-M1 population within TAMs) in the tumor tissue was calculated using the flow cytometry analysis program FlowJo™ (Treestar).

HCC827 (β3−) xenograft = test: Erlotinib resistant lung adenocarcinoma xenograft model (HCC827 subcutaneous); conditions: erlotinib-resistant tumors vs vehicle group
Method: Briefly, HCC827 (5×10^6 tumor cells in 100 μl of RPMI) cells were subcutaneously injected to the right flank of female nu/nu mice (8-10 weeks old). Tumors were measured twice per week with calipers (tumor volume (mm 3)=length×width×width/2). […] Tumor tissues were divided into three pieces for snap freezing, freezing in OCT compound (VWR, 25608-930), or 10% formalin fixation (Fisher Scientific, 23-313095) for further analyses.
Immunohistochemical staining was performed on unstained FFPE slides according to the manufacturers recommendations for the VECTASTAIN Elite ABC HRP Kit (Vector Laboratories, PK-6100). An anti-integrin β3 antibody (Cell Signaling, 13166, 1:200) and a biotinylated goat anti-rabbit antibody (Vector Laboratories, BA-1000, 1:200) were used. The stained tissues were imaged on NanoZoomer Slide Scanning System™ (Hamamatsu), and the β3-positive area fraction with respect to tumor tissue was calculated utilizing ImageJ (MH) (5).

HCC827-ErlR = system: HCC827-ErlR
Method: (§1) Cells were plated in 96-well plates, and after appropriate treatments, the cells were incubated in MTT solution (Sigma, M2128, 0.5 mg/mL in growth media) for two hours at 37° C. Then, the MTT solution was removed, and the blue crystalline precipitate in each well was dissolved in DMSO. Visible absorbance of each well at 560 nm was quantified using a microplate reader.

PC9 ErlR cells = conditions: cells from erlotinib treated (ErlR) vs vehicle treated animal
Method: as §1

solid tumors = conditions: patients with solid tumors; cited from earlier work
integrin αvβ3 = integrin αvβ3 (Homo sapiens, UniProt P05106+P06756); conditions: in vitro; cited from earlier work
integrin αvβ3, sequence (P06756 31-889 limits assumed): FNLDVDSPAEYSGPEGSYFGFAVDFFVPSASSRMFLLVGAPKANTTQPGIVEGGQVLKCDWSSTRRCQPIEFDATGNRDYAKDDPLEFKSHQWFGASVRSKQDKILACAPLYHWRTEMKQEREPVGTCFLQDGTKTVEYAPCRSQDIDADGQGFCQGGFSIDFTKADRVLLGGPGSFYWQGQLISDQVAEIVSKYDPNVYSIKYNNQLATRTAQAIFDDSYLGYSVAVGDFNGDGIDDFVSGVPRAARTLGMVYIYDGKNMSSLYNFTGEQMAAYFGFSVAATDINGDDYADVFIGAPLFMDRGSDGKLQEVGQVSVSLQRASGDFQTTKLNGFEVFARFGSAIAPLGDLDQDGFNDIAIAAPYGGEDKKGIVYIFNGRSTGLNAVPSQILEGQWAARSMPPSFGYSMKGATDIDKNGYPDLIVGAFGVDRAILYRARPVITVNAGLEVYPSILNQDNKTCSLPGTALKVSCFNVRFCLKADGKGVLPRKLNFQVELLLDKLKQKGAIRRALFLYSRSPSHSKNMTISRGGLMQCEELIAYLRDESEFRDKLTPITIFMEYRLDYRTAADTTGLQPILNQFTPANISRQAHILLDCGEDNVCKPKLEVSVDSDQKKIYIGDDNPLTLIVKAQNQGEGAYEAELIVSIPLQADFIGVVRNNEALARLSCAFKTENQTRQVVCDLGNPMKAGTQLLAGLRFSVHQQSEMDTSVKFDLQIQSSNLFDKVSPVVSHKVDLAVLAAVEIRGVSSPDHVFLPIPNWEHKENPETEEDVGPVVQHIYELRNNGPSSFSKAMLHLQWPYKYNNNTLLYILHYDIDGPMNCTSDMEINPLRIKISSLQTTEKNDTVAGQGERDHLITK
integrin αvβ3, sequence (P06756 891-1048 limits assumed): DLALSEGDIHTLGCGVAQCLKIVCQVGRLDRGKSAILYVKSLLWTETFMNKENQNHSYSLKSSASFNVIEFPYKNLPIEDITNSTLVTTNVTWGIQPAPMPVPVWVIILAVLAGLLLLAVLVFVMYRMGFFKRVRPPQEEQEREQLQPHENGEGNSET
integrin αvβ3, sequence (P05106 27-788): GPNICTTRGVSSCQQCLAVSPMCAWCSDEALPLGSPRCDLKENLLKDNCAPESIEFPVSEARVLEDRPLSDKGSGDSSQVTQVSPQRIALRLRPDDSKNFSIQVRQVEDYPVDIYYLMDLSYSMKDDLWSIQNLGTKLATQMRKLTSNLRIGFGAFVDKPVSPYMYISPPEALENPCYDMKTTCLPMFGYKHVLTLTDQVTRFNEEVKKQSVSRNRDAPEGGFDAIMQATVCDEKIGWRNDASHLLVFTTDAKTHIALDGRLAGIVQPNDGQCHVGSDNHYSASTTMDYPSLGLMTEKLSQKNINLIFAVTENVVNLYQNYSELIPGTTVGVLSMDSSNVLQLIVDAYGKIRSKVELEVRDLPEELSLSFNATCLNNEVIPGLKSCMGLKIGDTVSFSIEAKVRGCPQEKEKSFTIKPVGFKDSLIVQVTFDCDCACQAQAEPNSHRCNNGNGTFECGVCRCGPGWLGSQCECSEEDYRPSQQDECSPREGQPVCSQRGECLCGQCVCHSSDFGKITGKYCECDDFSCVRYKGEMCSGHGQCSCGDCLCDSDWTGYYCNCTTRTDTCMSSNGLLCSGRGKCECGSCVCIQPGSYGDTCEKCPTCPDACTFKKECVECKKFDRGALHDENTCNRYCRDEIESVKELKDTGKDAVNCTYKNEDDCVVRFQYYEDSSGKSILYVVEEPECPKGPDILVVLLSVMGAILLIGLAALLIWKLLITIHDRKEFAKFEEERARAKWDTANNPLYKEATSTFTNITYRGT

Molecule: C#Cc1cccc(Nc2ncnc3cc(OCCOC)c(OCCOC)cc23)c1 [erlotinib]
- number of CTCs ([1]; erlotinib for 30 days vs pre-treatment): sharp increase in the number of CTCs
- αvβ3 status of CTCs ([1]; following erlotinib treatment): vast majority of the CTCs detected following erlotinib treatment were αvβ3 positive
- tumor growth [2]: gained resistance
- number of TAMs, particularly M2 type, in tumors [3]: higher number of TAMs
- expression of integrin αvβ3 in tumors (HCC827 (β3−) xenograft): enriched in the erlotinib-resistant tumors compared to the vehicle group

Molecule: C=CC(=O)Nc1cc(Nc2nccc(-c3cn(C)c4ccccc34)n2)c(OC)cc1N(C)CCN(C)C [osimertinib]
- cell viability, sensitivity to EGFR inhibitor (HCC827-ErlR): also resistant
- cell viability (MTT), sensitivity to EGFR inhibitor (PC9 ErlR cells): osimertinib resistant

B1: etaracizumab: a humanized and affinity-matured form of LM609 (antibody, chains of the INN, looked up, V domains shown)
VH: QVQLVESGGGVVQPGRSLRLSCAASGFTFSSYDMSWVRQAPGKGLEWVAKVSSGGGSTYYLDTVQGRFTISRDNSKNTLYLQMNSLRAEDTAVYYCARHLHGSFASWGQGTTVTVSS
VL: EIVLTQSPATLSLSPGERATLSCQASQSISNFLHWYQQRPGQAPRLLIRYRSQSISGIPARFSGSGSGTDFTLTISSLEPEDFAVYYCQQSGSWPLTFGGGTKVEIK
- clinical activity (solid tumors): showed clinical activity in some patients
- antibody-dependent cell mediated cytotoxicity (ADCC) (integrin αvβ3): reported to mediate antibody-dependent cell mediated cytotoxicity (ADCC) in vitro
